Read-outs that look alike come from different tables or passages of the source. Each block holds one molecule with its values, some of them ahead of it.
Columns and labels:
SHBG = assay: Effect on serum concentrations of SHBG; conditions: in vivo
[1] = PK study in females with BMI<25 vs BMI>25 kg/m^2; format: in vivo, human; conditions: 18 females BMI<25 vs 21 females BMI>25 kg/m^2
Excerpt: The vaginal system described herein has not been adequately evaluated in females with a body mass index of >29 kg/m2. […] Higher body weight associates with lower systemic exposure of SA and EE. In a PK study conducted in 18 females with BMI<25 (16.89-24.34) kg/m^2 and 21 females with BMI>25 (25.15-37.46) kg/m^2, up to 16% and 33% decreases in the systemic exposure (AUC0-21day) of SA and EE, respectively, were observed between the two BMI groups.

[2] = Recoverable SA and EE after storage; format: physicochemical; conditions: for amount recoverable from the vaginal system: 24 months of storage at 25° C. and 60% relative humidity
Method: This was quite surprising as a similar trend was not observed during long-term stability studies on the cores before assembly.
• Diluent: methanol/water 58/42 v/v • Dried NES and EE before weighing (100-105° C. 3 h) • EE stock solution: Dissolved 25.0 mg of EE and diluted to 250.0 mL with methanol (duplicates, EE1 and EE2) • NES stock solution: Dissolved 50.0 mg of NES and diluted to 100.0 mL with methanol (duplicates, NES1 and NES2) • Standard solutions: • S1: Diluted 5.0 mL of NES1 and 4.0 mL of EE1 to 50.0 mL with diluent • S2: Diluted 6.0 mL of NES2 and 5.0 mL of EE2 to 50.0 mL with diluent • S3: Diluted 8.0 mL of NES1 and 7.0 mL of EE1 to 50.0 mL with diluent • S4: Diluted 10.0 mL of NES2 and 9.0 mL of EE2 to 50.0 mL with diluent • System suitability solution (SST solution): Diluted 5.0 mL acetone+7.0 mL NES1+6.0 mL EE1 to 50.0 mL with diluent. Extraction Procedure: • Rings were cut into 8 pieces and each piece was divided lengthwise then transferred to an Erlenmeyer flask. • 140 mL of acetone (weight of flask was noted before and after acetone addition) was added to the flask. […] Liquid Chromatography Column • analytical column: Discovery C8, 5 μm, 150×4.6 mm (Supelco) • pre-column: Supelguard, Discovery C8, 5 μm, 20×4.0 mm (Supelco) • stationary phase: endcapped C8 (5 μm particle size) USP L7 • temperature: 30° C. • Mobile phase: methanol/water 58/42, isocratic elution • Flow rate: 1.2 mL/min • Detection (assay): NES UV 240 nm, EE UV 280 nm • Detection (identity): PDA (photodiode array detector) scanning 220-310 nm, NES 240 nm, EE 280 nm • Injection: 20 μL • Run time: 15 min • System suitability: SST solution • Area precision (n=5): RSD (%)≤2.0 • Peak tailing (T): 0.8≤T≤1.5 • Blank injections: No interfering peaks • Retention times: EE approximately 7 min and NES approximately 9 min • Results Assay: Report the average value of three different rings and express as mg EE/ring and mg NES/ring. • Results Content uniformity: Calculate the average value of ten different rings. […]

[3] = in vivo; cited from earlier work
[4] = Drug-drug interaction study with vaginal miconazole formulations; format: in vivo, human; conditions: concurrent water-based vaginal miconazole cream
Excerpt: However, the use of either the 1 day or the 3-day oil-based miconazole suppository was associated with an overall increase in exposure up to 67% for EE and 32% for SA. Considering the potential long-term effect on vaginal system performance, concurrent use of oil-based vaginal suppositories should not occur with the system's use. If there is a need to treat a vaginal condition, water-based vaginal cream or oral therapy may be used concurrently with the vaginal system.

[5] = Pharmacokinetics of the vaginal system in 39 women over up to 13 product-use cycles; format: in vivo; set-up: concentration or dose not given beside the values; conditions: female, human, serum
Method: The pharmacokinetics (PK) of the vaginal system described herein were determined in 39 women who used the system for up to 13 product-use cycles. […] Over subsequent product-use cycles, the peak serum concentrations of SA and EE declined. Serum concentration-time profiles of SA and EE for product-pse cycles 1, 3, and 13 of system use are provided in FIG. 1 and FIG. 2 with PK parameters summarized in Table 8 and Table 9.

[6] = biological target: T1, sex hormone-binding globulin (SHBG) (Homo sapiens, UniProt P04278); assay: Binding to sex hormone-binding globulin
T1 sequence (P04278 30-402): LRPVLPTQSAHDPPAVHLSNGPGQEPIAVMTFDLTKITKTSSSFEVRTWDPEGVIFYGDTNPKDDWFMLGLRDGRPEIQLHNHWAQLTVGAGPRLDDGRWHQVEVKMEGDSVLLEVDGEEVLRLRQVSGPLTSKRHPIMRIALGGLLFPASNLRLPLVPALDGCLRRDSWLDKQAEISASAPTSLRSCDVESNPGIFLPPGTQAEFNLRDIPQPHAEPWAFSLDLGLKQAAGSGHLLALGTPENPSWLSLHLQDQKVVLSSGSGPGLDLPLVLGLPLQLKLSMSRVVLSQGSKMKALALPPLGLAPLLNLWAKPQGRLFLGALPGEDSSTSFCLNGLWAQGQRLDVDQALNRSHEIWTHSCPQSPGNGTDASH

rats = assay: Return to fertility study in rats with subdermal implants; format: in vivo, rat; conditions: 7 weeks after cessation of treatment
Method: A return to fertility study was conducted with segesterone acetate in rats, using subdermal implants releasing a dose approximately 25 times the anticipated daily vaginal human dose (based on body surface area).

Salmonella = assay: Ames/Salmonella reverse mutation assay; format: cell-based
[7] = Solubility in solvents (descriptive); format: physicochemical; conditions: USP classification
CYP enzymes = assay: In vitro CYP inhibition/induction studies; format: in vitro ADME; conditions: therapeutic dose
[8] = tested on: Chinese hamster ovary cells; assay: Chromosomal aberration assay; format: cell-based
mouse = assay: In vivo mouse micronucleus test

decrease in systemic exposure (AUC0-21day) between the two BMI groups [1]: ≤ 33% | amount recoverable from the vaginal system [2]: decreased in a time-dependent manner | change in exposure from the vaginal system [4]: no change in exposure | AUC(0-t) ([5]; Cycle 1, mean (SD), read-out: AUC0−1 day): 2.1 ng·h/mL | AUC(0-t) ([5]; Cycle 1, mean (SD), read-out: AUC0−21day): 22.2 ng·h/mL | AUC(0-t) ([5]; Cycle 3, mean (SD), read-out: AUC0−1 day): 0.9 ng·h/mL | AUC(0-t) ([5]; Cycle 3, mean (SD), read-out: AUC0−21day): 14.7 ng·h/mL | AUC(0-t) ([5]; Cycle 13, mean (SD), read-out: AUC0−1 day): 0.7 ng·h/mL | AUC(0-t) ([5]; Cycle 13, mean (SD), read-out: AUC0−21day): 9.6 ng·h/mL
SMILES: C#C[C@]1(O)CC[C@H]2[C@@H]3CCc4cc(O)ccc4[C@H]3CC[C@@]21C [EE, 19-nor-17α-pregna-1,3,5(10)-trien-20-yne-3,17-diol]
effect on serum concentrations of SHBG (SHBG): induces an increase in the serum concentrations of SHBG | amount recoverable from the core by extraction ([2]; cores before assembly, extended storage): full amount of EE was found to be recoverable | excretion route [3]: excreted in the urine and feces as glucuronide and sulfate conjugates | primary metabolic route [3]: primarily metabolized by aromatic hydroxylation

SMILES: C=C1C[C@H]2[C@@H]3CCC4=CC(=O)CC[C@@H]4[C@H]3CC[C@]2(C)[C@@]1(OC(C)=O)C(C)=O [SA, 16-methylene-17α-acetoxy-19-nor-pregn-4-ene-3,20-dione]
binding affinity for sex hormone-binding globulin (SHBG) [6]: negligible binding affinity | effects on ovulation or litter parameters (rats): no adverse effects on ovulation or resulting litter parameters | decrease in systemic exposure (AUC0-21day) between the two BMI groups [1]: up to 16% | mutagenicity/clastogenicity (Salmonella): neither mutagenic nor clastogenic | solubility ([7]; acetone): freely soluble | solubility ([7]; ethyl acetate): soluble | solubility ([7]; methanol): soluble | solubility ([7]; n-hexane): slightly soluble | amount recoverable from the vaginal system [2]: remained essentially constant | CYP enzyme inhibition or induction (CYP enzymes): unlikely to inhibit or induce CYP enzymes | mutagenicity/clastogenicity [8]: neither mutagenic nor clastogenic | change in exposure from the vaginal system [4]: no change in exposure | mutagenicity/clastogenicity (mouse): neither mutagenic nor clastogenic
